Results on two molecules are retold here after patent publication US6509377B1, “Use of a 2-hydroxy-4-trifluoromethylbenzoic acid derivatives as inhibitors of the activation of the nuclear transcription factor NF-κB” (J. Uriach & Cia, S.A., priority 1999, dated 2003).

Series [1] can be described thus: Cell viability of 143.98.2 cells (EZ4U). The note with it: human, read-out: Percentage of cell viability. In kind it is cell-based. Here is the method:
Several cell lines obtained from the American Type Culture Collection (ATCC) were cultured at 37° C. and under a 5% CO2 atmosphere. Each cell line was grown in an appropriate culture medium and within the exponential phase (Table I).
For the cell viability studies 24-well plates were used, where 0.5×10^6 cells/ml (for 24-hour studies), 0.25×10^6 cells/ml (for 48-hour studies) or 0.125×10^6 cells/ml (for 72-hour studies) were incubated. Next, different concentrations of HTB (1-3 mM) were added and cells were incubated for different time periods (37° C., 5% CO2). After incubation, the supernatant from each well was extracted, and cells were washed with culture medium without fetal calf serum. Then, the supernatant was extracted and 200 μl culture medium without fetal calf serum were added to each well. In addition, 20 μl substrate were added to determine cell viability. This method is based on the ability of viable cells to transform the colourless substrate into a coloured substance that is excreted to the supernatant (EZ4U, Biomedica Gmbh.). After incubating cells for 1 hour at 37° C. and 5% CO2, 200 μl supernatant were collected and the absorbance was measured at 450 nm.
The absorbance was also determined at 620 nm as a measure of the existing non-specific value.

For the next series, the system named is COX-2. Briefly: PGE2 production in rat exudate (carrageenan air pouch). In kind it is in vivo. The conditions noted are these: oral 3-30 mg/kg, 6 h. As to the method:
Lewis rats (175-200 g) were used in this study. Rats were randomly distributed in groups of 5 animals. An, air pouch was produced by subcutaneous injection of 20 ml of sterile air into the intrascapular area of animals in each group. Every two days, 10 ml of air were injected again into the cavity to keep the space open. Seven days after the first injection of air, 2 ml of a 1% carrageenan solution was injected into the air pouch in all groups to produce an inflammatory reaction. Test compound was administered orally 30 min before carrageenan administration. The animals were killed 6 h later and the volume of exudate was measured. The type and number of cells present were determined using standard Wright-Giemsa staining and a Coulter Counter cell counter, respectively. The exudate was centrifuged at 400 g at 4° C. for 7 min and PGE2 concentration was determined by enzyme-immunoassay (Amershan-Biotrak RPN222). The cell pellet was resuspended in 2 ml cold 0.85% NaCl. To eliminate red cell contamination, cells were subjected to a selective cellular lysis by the addition of 6 ml cold water for 20 seconds. The isotonicity of the cellular suspension was restored by the addition of 2 ml 3.5% NaCl. […]

The test system of another series is NF-κB. Briefly: NF-κB activation in brain cells of post-natal Long Evans black-hooded rats (NMDA lesion). In kind it is in vivo, rat. Here is the method: This study was carried out using post-natal (P9) Long Evans black-hooded rats. Each group consisted of 6 animals subjected to an experimental lesion, plus two control animals of the same age. The experimental lesion was induced by intracortical injection (sensorimotor area) of N-methyl-D-aspartate (NMDA), which causes a marked local neuronal degeneration. Triflusal (30 mg/kg) was administered orally in three doses (from day 7 to 9) every 24 hours. Glial reactivity was induced by NMDA injection at postnatal day 9, one hour after the last triflusal dose. At different times (2-24 h) after this last dose, animals were killed, brains were extracted and cut in a cryostat and sections were processed using immunocytochemical and histochemical techniques to determine NF-κB activation in microglia and astroglia using double staining: NF-κB-lectin and NF-κB-GFPA. In parallel, slices were cut on a vibratome to determine the degree of microglial and astroglial reactivity by histoenzymatic techniques (B. Castellano et al., J.Histochem. Cytochem., 1991, 39(5), 561-568).

Series [2] can be described thus: Adjuvant-induced arthritis in the rat. In kind it is in vivo. The note with it: 10 mg/kg p.o. daily for 28 days, day 28. Here is the method: Adjuvant-induced arthritis is characterized by the development, from day 14 after adjuvant injection, of a chronic inflammation of immunological origin in several joints, with accumulation of inflammatory cells and release of cytokines. For this study, male Lewis rats with body weight between 100 and 150 g were used. Before the start of the study animals were acclimated for a period of at least 5 days. Animals were fasted for 18 hours before the study, with water ad libitum. Throughout the study, animals were allowed free access to drinking water, except during observation periods. Groups of five animals were randomized (Sham, Control and Triflusal). The duration of the study was 28 days. Arthritis was induced on day 1 of the study by subplantar administration of 0.1 ml of an emulsion formed with 10 mg M. butyricum and 10 ml Freund's incomplete adjuvant (Difco) to the right hindpaw of the animals from the Control and Triflusal groups. Sham animals received 0.1 ml Freund's incomplete adjuvant. […] On day 28 of the development of arthritis, the volume of the contralateral paw to that receiving the adjuvant injection was determined using a UGO BASILE 7150 plethysmometer. The inhibition of the increase in volume was calculated as follows: % Inh.=100−((T-S)/(C-S))*100 Where: T=Triflusal group; C=Control group; and S=Sham group

A word on the viability: it is a read-out of living cells in per cent, often relative to untreated cells. For the molecule `O=C(O)c1ccc(C(F)(F)F)cc1O` [HTB, 2-hydroxy-4-trifluoromethylbenzoic acid], in series [1] (143.98.2 cells (osteosarcoma), 1 mM HTB, 0 hours), the viability at 0 h, 1 mM turned out to be 100%. Moreover, the viability at 2 h, 1 mM in series [1] (143.98.2 cells (osteosarcoma), 1 mM HTB, 2 hours) is 100%. Also, the viability at 5 h, 1 mM in series [1] (143.98.2 cells (osteosarcoma), 1 mM HTB, 5 hours) was determined as 100%. Besides, the viability at 24 h, 1 mM in series [1] (143.98.2 cells (osteosarcoma), 1 mM HTB, 24 hours) was determined as 93.9%. Further, in series [1] (143.98.2 cells (osteosarcoma), 1 mM HTB, 48 hours), the viability at 48 h, 1 mM worked out at 83.2%. Besides, the viability at 72 h, 1 mM in series [1] (143.98.2 cells (osteosarcoma), 1 mM HTB, 72 hours) stood at 50.4%. The viability at 0 h, 3 mM in series [1] (143.98.2 cells (osteosarcoma), 3 mM HTB, 0 hours) was found to be 100%. Moreover, the viability at 2 h, 3 mM in series [1] (143.98.2 osteosarcoma cells, 3 mM HTB, 2 hours) amounted to 98.1%. The viability at 5 h, 3 mM in series [1] (143.98.2 osteosarcoma cells, 3 mM HTB, 5 hours) stood at 82.7%. In series [1] (143.98.2 osteosarcoma cells, 3 mM HTB, 24 hours), the viability at 24 h, 3 mM came to 52.2%. Also, the viability at 48 h, 3 mM in series [1] (143.98.2 osteosarcoma cells, 3 mM HTB, 48 hours) was determined as 16.1%.

`CC(=O)Oc1cc(C(F)(F)F)ccc1C(=O)O` [triflusal, 2-Acetyloxy-4-trifluoromethylbenzoic acid, reference compound]: the “inhibition of PGE2 production in the exudate” value in the series on COX-2 was “dose-dependently inhibits”. In the series with NF-κB (30 mg/kg p.o. pretreatment), the “NF-κB activation in astroglial and microglial cells after NMDA excitotoxic lesion” value is given as “completely inhibited”. The “basal (constitutive) NF-κB activation in cortical neurons of control animals” value in the series with NF-κB (triflusal 30 mg/kg orally, three doses every 24 hours) was “inhibited”. Also, in series [2], the “inhibition of the increase in volume of the contralateral paw” value is recorded as 63.1±8.0%.
